Measurements reported in PMC7658267, “Effects of CYP46A1 Inhibition on Long-Term-Depression in Hippocampal Slices ex vivo and 24S-Hydroxycholesterol Levels in Mice in vivo” (Frontiers in Molecular Neuroscience, 2020).
Like-named read-outs stand apart in the source and are kept apart here.

Columns and labels:
CYP46A1 [1] = molecular target: T1, CYP46A1 (Homo sapiens, UniProt Q9Y6A2); experiment: recombinant human CYP46A1 microsomes, cholesterol to 24-hydroxycholesterol, LC-MS/MS ([…] with testosterone as substrate); type: biochemical
T1 sequence (Q9Y6A2 whole entry): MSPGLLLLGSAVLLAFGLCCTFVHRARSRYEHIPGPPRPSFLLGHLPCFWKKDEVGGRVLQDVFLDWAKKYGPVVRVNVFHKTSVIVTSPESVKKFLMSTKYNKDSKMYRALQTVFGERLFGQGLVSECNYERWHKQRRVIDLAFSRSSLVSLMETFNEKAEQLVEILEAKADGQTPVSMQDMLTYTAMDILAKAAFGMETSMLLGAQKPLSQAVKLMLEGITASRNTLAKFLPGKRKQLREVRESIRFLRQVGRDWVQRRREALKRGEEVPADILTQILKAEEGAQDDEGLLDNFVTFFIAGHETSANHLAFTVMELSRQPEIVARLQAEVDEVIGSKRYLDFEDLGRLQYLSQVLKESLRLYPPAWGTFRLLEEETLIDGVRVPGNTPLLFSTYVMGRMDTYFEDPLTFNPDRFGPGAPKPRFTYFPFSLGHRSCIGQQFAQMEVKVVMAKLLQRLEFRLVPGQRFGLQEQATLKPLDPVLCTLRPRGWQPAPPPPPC

CYP46A1 [2] = molecular target: T1, CYP46A1; experiment: as above; type: biochemical; remark: listed apart in the source
Human β1 = molecular target: T2, Human β1 (Homo sapiens, UniProt P08588); experiment: biochemical; parameters: CEREP off-target binding panel, per cent inhibition at 10 uM, n = 2
T2 construct: gene ADRB1
T2 sequence (P08588 whole entry): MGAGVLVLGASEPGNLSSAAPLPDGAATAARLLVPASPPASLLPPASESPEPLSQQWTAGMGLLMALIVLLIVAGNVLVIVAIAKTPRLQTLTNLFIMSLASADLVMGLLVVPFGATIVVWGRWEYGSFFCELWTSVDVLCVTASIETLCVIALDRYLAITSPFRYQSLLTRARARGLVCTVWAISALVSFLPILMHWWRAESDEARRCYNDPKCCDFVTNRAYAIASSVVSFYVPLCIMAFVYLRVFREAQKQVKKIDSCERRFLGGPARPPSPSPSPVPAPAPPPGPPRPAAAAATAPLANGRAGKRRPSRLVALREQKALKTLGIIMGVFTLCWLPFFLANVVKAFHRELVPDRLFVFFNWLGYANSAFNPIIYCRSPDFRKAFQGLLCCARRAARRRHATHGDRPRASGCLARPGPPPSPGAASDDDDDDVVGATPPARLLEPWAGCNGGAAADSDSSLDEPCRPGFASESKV

Human M2 = molecular target: T3, Human M2 (Homo sapiens, UniProt P08172); experiment: biochemical; parameters: CEREP off-target binding panel, per cent inhibition at 10 uM, n = 2
T3 construct: gene CHRM2
T3 sequence (P08172 whole entry): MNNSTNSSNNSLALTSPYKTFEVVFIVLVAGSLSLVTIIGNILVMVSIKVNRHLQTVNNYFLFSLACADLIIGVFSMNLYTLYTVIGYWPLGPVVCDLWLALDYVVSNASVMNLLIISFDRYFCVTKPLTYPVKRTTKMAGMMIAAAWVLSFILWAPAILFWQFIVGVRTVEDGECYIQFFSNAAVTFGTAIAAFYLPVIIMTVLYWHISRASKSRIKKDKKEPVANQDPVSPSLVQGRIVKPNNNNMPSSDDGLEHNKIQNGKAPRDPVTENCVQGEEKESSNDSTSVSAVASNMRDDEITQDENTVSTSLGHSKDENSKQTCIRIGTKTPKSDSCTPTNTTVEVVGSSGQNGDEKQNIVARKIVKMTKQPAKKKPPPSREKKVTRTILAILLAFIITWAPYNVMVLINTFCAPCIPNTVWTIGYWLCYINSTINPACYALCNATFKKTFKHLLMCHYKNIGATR

Human 5-HT2A = molecular target: T4, Human 5-HT2A (Homo sapiens, UniProt P28223); experiment: biochemical; parameters: CEREP off-target binding panel, per cent inhibition at 10 uM, n = 2
T4 construct: gene HTR2A
T4 sequence (P28223 whole entry): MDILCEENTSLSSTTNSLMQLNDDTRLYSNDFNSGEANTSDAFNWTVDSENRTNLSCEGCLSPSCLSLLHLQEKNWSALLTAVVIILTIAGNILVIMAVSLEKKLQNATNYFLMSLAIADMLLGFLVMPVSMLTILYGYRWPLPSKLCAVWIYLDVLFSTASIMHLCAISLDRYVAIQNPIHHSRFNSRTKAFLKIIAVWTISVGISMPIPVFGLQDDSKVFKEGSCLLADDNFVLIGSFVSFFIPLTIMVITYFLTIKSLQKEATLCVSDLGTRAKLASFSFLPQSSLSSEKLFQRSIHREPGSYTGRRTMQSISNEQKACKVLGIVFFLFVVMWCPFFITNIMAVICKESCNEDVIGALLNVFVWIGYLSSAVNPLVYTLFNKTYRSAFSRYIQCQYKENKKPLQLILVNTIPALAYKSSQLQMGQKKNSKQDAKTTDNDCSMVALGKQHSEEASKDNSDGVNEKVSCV

Compound | IC50 (CYP46A1 [1]) [nM] | IC50 (CYP46A1 [2]) [nM] | inhibition at 10 µM (Human β1) [%] | inhibition at 10 µM (Human M2) [%] | inhibition at 10 µM (Human 5-HT2A) [%]
O=C(c1cnc2c(-c3cnco3)cc(C(F)(F)F)cn12)N1C2CCC1COC2 [compound 1, (3-oxa-8-azabicyclo[3.2.1]octan-8-yl)(8-(oxazol-5-yl)-6-(trifluoromethyl)imidazo[1,2-a]pyridin-3-yl)methanone] | 22 | – | – | – | –
O=C(c1cccnc1-c1ccncn1)N1CCC(O)(Cc2ccc(F)cc2)CC1 [compound 2, (4-(4-fluorobenzyl)-4-hydroxypiperidin-1-yl)(2-(pyrimidin-4-yl)pyridin-3-yl)methanone] | – | 32 | -0.7 | 12.3 | -5
